According to publication PMC8041284, “Tunable Methacrylamides for Covalent Ligand Directed Release Chemistry” (Journal of the American Chemical Society, 2021):

These compounds were tested against BTK (Homo sapiens, UniProt Q06187) (assay: biochemical). Conditions: read-out: BTK inhibition (%).
BTK, sequence (Q06187 402-655 limits assumed): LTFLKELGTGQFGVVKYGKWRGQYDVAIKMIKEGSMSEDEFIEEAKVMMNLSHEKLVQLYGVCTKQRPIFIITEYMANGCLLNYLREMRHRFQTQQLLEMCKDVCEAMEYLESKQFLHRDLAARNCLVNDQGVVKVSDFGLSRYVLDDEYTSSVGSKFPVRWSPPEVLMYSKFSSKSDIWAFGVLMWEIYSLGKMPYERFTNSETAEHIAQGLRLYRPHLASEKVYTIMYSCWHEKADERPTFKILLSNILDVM

| SMILES | inhibition at 10 µM [%] |
| --- | --- |
| NC(=O)CN1CC(c2ccccc2)CC1=O (stereo not drawn) [PCM-0216067] | 10 |
| COC1=C[C@@]23CCN(C)[C@@H](Cc4ccc(OC)c(O)c42)C3=CC1=O [PCM-0216320] | 3.1 |

Same assay, conditions: read-out: BTK inhibition (%), 0.75 uM BTK, […] probe 3l, 15 min preincubation

| SMILES | inhibition at 10 µM [%] |
| --- | --- |
| O=C(/C=C\n1cnc(-c2cc(C(F)(F)F)cc(C(F)(F)F)c2)n1)N1CC(F)(F)C1 [PCM-0095738] | -16.2 |
| CCCCCCCCCCCCc1ccc(S(=O)(=O)Nc2nncs2)cc1 [PCM-0095111] | 53.8 |
| CCCCCCCCCCCCCc1cccc(O)c1C(=O)O [PCM-0216334] | 34 |
| CS(=O)(=O)n1cc2c(n1)CN([C@H]1CO[C@H](c3cc(F)ccc3F)[C@@H](N)C1)C2 [PCM-0215833] | 4.6 |
| COC(=O)[C@@H]1[C@H]2C[C@H]3c4[nH]c5ccccc5c4CCN3C[C@@H]2CC[C@@H]1O [PCM-0214658] | -21.8 |
| Cc1[nH]nc2ncc(C(=O)N3CCC[C@H]3c3ccc(Cl)cc3)cc12 [PCM-0215837] | 6.2 |
| C=CCc1ccc(OC(C)=O)c(OC)c1 [PCM-0216623] | 8.5 |
| O=C(O)C(O)Cc1ccc(O)c(O)c1 (stereo not drawn) [PCM-0089145] | 18.7 |
| O=CO [PCM-0216152] | -12.4 |
| CN1CCc2c(c3ccccc3n2Cc2ccc(C(=O)NO)cc2)C1 [PCM-0095487] | 0.8 |
| Cc1ccc(O)c(O)c1 [PCM-0216565] | 6.2 |
| O=C(c1ccc(OCCN2CCCCC2)cc1)c1c(-c2ccc(O)cc2)sc2cc(O)ccc12 [PCM-0065394] | 85.5 |
| C[C@H](C[C@H](O)[C@H]1OC1(C)C)C1=C2C[C@H](O)[C@H]3[C@@]4(C)CCC(=O)C(C)(C)[C@@H]4CC[C@]3(C)[C@@]2(C)CC1 [PCM-0216518] | -24.7 |
| CC(C)CCC[C@@H](C)[C@H]1CC[C@H]2[C@@H]3CC[C@H]4C[C@@H](O)CC[C@]4(C)[C@H]3CC[C@]12C [PCM-0216033] | -9.4 |
| O=C(Nc1ccccc1-c1cn2c(CN3CCNCC3)csc2n1)c1cnc2ccccc2n1 [PCM-0094935] | 10.3 |
| CCCN1C[C@H](CSC)C[C@@H]2c3cccc4[nH]cc(c34)C[C@H]21 [PCM-0065439] | -1.6 |
| CCC(CC)CC1(C(=O)Nc2ccccc2SC(=O)C(C)C)CCCCC1 [PCM-0095336] | 6.2 |
| O=C(O[C@@H]1O[C@@H]2COC(=O)c3cc(O)c(O)c(O)c3-c3c(cc(O)c(O)c3O)C(=O)O[C@H]([C@H]1O)[C@@H]2O)c1cc(O)c(O)c(O)c1 [PCM-0216383] | 37.1 |
| CC1=CC(=O)c2ccccc2C1=O [PCM-0009823] | -3.1 |
| CC[C@@H]([C@H](C)O)n1ncn(-c2ccc(N3CCN(c4ccc(OC[C@@H]5CO[C@@](Cn6cncn6)(c6ccc(F)cc6F)C5)cc4)CC3)cc2)c1=O [PCM-0214608] | 4.7 |
| C=CC(=O)Nc1cccc(C)c1Nc1ncc2cc(-c3c(Cl)c(OC)cc(OC)c3Cl)ccc2n1 [PCM-0215508] | 100 |
| O=C1C[C@@H](c2ccc(O)cc2)Oc2cc(O)ccc21 [PCM-0214979] | -9.3 |
| O=C(/C=C/c1cccnc1)c1ccncc1 [PCM-0215906] | -6.9 |
| C#CCC(Cc1cnc2nc(N)nc(N)c2n1)c1ccc(C(=O)N[C@@H](CCC(=O)O)C(=O)O)cc1 (stereo partly drawn) [PCM-0095176] | 1.6 |
| CN(CC(=O)N(Cc1ccc(C2CCCCC2)cc1)c1ccc(C(=O)NO)cc1)S(=O)(=O)c1c(F)c(F)c(F)c(F)c1F [PCM-0215779] | 19.3 |
| Fc1cc(-c2cccc3ncc(-c4cnn(C5CCNCC5)c4)nc23)cc(F)c1CN1CCOCC1 [PCM-0095382] | 78.6 |

| SMILES | inhibition at 10 µM [%] |
| --- | --- |
| NC[C@H](O)c1ccc(O)c(O)c1 [PCM-0214713] | -5.4 |
| Cc1ccc(NCCCc2ccccc2)c(N)c1 [PCM-0095790] | 17 |
| CC(=O)N1c2ccc(-c3ccc(C(=O)O)cc3)cc2[C@H](Nc2ccc(Cl)cc2)C[C@@H]1C [PCM-0215400] | 31.7 |
| CN1C[C@@H]2c3ccccc3Oc3ccc(Cl)cc3[C@H]2C1 [PCM-0095064] | 9.3 |
| Cc1c[nH]c(/C=C2\C(=O)Nc3ccccc32)c1CCC(=O)O [PCM-0216652] | 83.4 |
| COc1ccc(C(=O)N2CCCC2=O)cc1 [PCM-0064527] | -4.7 |
| O=C(/C=C/C=C/c1ccc2c(c1)OCO2)N1CCCCC1 [PCM-0006645] | -14 |
| CC(C)[C@H](C(=O)Nc1ccc(C(=O)NO)cc1)c1ccccc1 [PCM-0095283] | 17.1 |
| CCC(=O)O[C@]1(C(=O)CCl)[C@@H](C)C[C@H]2[C@@H]3CCC4=CC(=O)C=C[C@]4(C)[C@@]3(F)[C@@H](O)C[C@@]21C [PCM-0086533] | 3.4 |
| CC(/C=C/C=C(\C)C(=O)O[C@@H]1O[C@H](CO)[C@@H](O)[C@H](O)[C@H]1O)=C\C=C\C=C(C)\C=C\C=C(/C)C(=O)O[C@@H]1O[C@H](CO[C@@H]2O[C@H](CO)[C@@H](O)[C@H](O)[C@H]2O)[C@@H](O)[C@H](O)[C@H]1O [PCM-0216484] | 16.2 |
| c1cc(-c2cnn3cc(-c4ccc(N5CCNCC5)cc4)cnc23)c2cccnc2c1 [PCM-0095784] | 3.9 |
| C[C@@H]1CC[C@@]2(OC1)O[C@H]1C[C@H]3[C@@H]4CC=C5C[C@@H](O[C@@H]6O[C@H](CO)[C@@H](O[C@@H]7O[C@@H](CO)[C@H](O)[C@H]7O)[C@H](O)[C@H]6O[C@@H]6O[C@@H](C)[C@H](O)[C@@H](O)[C@H]6O)CC[C@]5(C)[C@H]4CC[C@]3(C)[C@H]1[C@@H]2C [PCM-0216403] | -10 |
| NC(=O)Nc1cc(-c2cccc(F)c2)sc1C(=O)N[C@H]1CCCNC1 [PCM-0095092] | 86.9 |
| O=C1CCc2ccccc2O1 [PCM-0216624] | -9.3 |
| O=C(O)c1ccco1 [PCM-0215122] | -21.8 |
| O=C1C(=Cc2cccnc2)C(=O)c2ccccc21 [PCM-0216080] | 20.8 |
| COc1cc2c(c(OC)c1OC)-c1c(cc3c(c1OC)OCO3)CC(C)C(C)C2 (stereo not drawn) [PCM-0214727] | 11.7 |
| Cn1ncc(Cl)c1-c1cc(C(=O)N[C@H](CN)Cc2cccc(F)c2)sc1Cl [PCM-0215459] | -40 |
| O=C(O)C(=O)O [PCM-0216287] | -10 |
| Nc1nc(F)nc2c1ncn2[C@@H]1O[C@H](COP(=O)(O)O)[C@@H](O)[C@@H]1O [PCM-0090501] | -8.6 |
| O=C(NC(NC(=S)Nc1ccc(F)c([N+](=O)[O-])c1)C(Cl)(Cl)Cl)C(c1ccccc1)c1ccccc1 (stereo not drawn) [PCM-0215199] | 106 |
| CCc1cc(Nc2nccc(-c3c(-c4ccc(OC)c(C(=O)Nc5c(F)cccc5F)c4)nc4ccccn34)n2)c(OC)cc1N1CCC(N2CCN(S(C)(=O)=O)CC2)CC1 [PCM-0095069] | 44.8 |
| CC[C@@](C)(Nc1ccnc(-c2c[nH]c3ncccc23)n1)C(=O)NCC(F)(F)F [PCM-0215573] | 2.1 |
| CCCCOc1ccc(C(=O)Nc2ccc(F)cc2F)cc1 [PCM-0095388] | -5.4 |
| COc1cc2c(cc1OC)[C@@H]1Cc3ccc(OC)c(OC)c3CN1CC2 [PCM-0094863] | 3.9 |
| CC(C)C[C@H](NC(=O)[C@H](Cc1ccccc1)C[C@@H](O)[C@H](Cc1ccccc1)NC(=O)OC(C)(C)C)C(=O)N[C@@H](Cc1ccccc1)C(N)=O [PCM-0215547] | 5.4 |
